The record followed here is patent US10815297B2, “Antagonists of IL17C for the treatment of inflammatory disorders” (MorphoSys AG, priority 2011, dated 2020).

The subject of assay [1] is TS-exposed mice (C57BL/6J), pulmonary inflammation. Nature of the assay: Tobacco smoke model, cells recovered in bronchoalveolar lavage. Format: in vivo, mouse. As for the experimental part: The response consisted of significant increases in the numbers of macrophages, epithelial cells, neutrophils and lymphocytes recovered in BAL.
Vehicle (PBS), MOR12743 and MOR03207 were administered i.p., 1 h prior to TS-exposure on days 1, 4, 7 and 10 of the study. Roflumilast was administered p.o., 1 h prior to each TS-exposure.
In this exposure protocol, mice were exposed in groups of 5 in clear polycarbonate chambers (27 cm×16 cm×12 cm). The TS from ‘Marlboro 100’ cigarettes was allowed to enter the exposure chambers at a flow rate of 100 mL/min. In order to minimise any potential problems caused by repeated exposure to a high level of TS, the exposure period to TS was increased initially from 25 minutes at the start of the study (day 1) to a maximum of 45 minutes on day 3. The exposure schedule used in this study was as follows:
The trachea was cannulated using a 10 mm long Luer fitting stainless steel cannula. Phosphate buffered saline (PBS) was used as the lavage fluid. A volume of 0.4 mL was gently instilled and withdrawn 3 times using a 1 mL syringe and then placed in an Eppendorf tube and kept on ice prior to subsequent determinations.
Lavage fluid was separated from cells by centrifugation (6 min at 3400 rpm, RCF=3070×g—‘Eppendorf Mini Spin’) and the supernatant decanted and frozen for possible subsequent analysis. The cell pellet was re-suspended in a known volume of PBS and total cell numbers calculated by counting a stained (Turks stain) aliquot under a microscope using a haemocytometer.
The residual cell pellet was diluted to approximately 10^5 cells per mL. A volume of 500 μl was placed in the funnel of a cytospin slide and centrifuged for 8 min at 800 rpm, RCF=72.26×g (Shandon Cytospin 3). The slide was air-dried and stained using Wrights/Giemsa stain as per the proprietary instructions. When dried and cover-slipped, differential cell-counts were performed using light microscopy. Approximately 400 cells were counted for each slide. Cells were identified using standard morphometric techniques.
In this study, 4 groups of mice were subjected to daily TS-exposure for 11 days and were sacrificed on the 12th day, 24 h after the final TS-exposure. Three groups received either vehicle (D-PBS), MOR12743 or MOR03207, i.p., 1 h prior to TS-exposure on days 1, 4, 7 and 10 of the study. One group received Roflumilast, p.o., 1 h prior to each TS-exposure. A further group was exposed to air for 11 consecutive days and sacrificed on the 12th day, 24 h after the final air-exposure. This group received vehicle (D-PBS), i.p., 1 h prior to exposure on days 1, 4, 7 and 10 of the study. For all groups n=10.
All mice were killed on day 12, by intra-peritoneal barbiturate anaesthetic overdose, 24 h after final exposure to air or TS. A blood sample was taken over heparin from the sub-clavian vein and the plasma separated by centrifugation and stored at −40° C. A BAL was performed using 0.4 mL of phosphate buffered saline (PBS). Cells recovered from the BAL were used for the total cell and differential cell counts. The BAL supernatants and remaining cell pellet were stored at −40° C. and −80° C. respectively for possible future analysis. Following BAL, the cannula was left tied in place. The heart and lungs were removed after gently opening the thorax and cutting down either side of the sternum and ribs. The left lobe was tied off, removed, snap-frozen and stored at −80° C. The right lobe was inflated with 10% phosphate buffered formalin (PBF) to a pressure of 18 cm of PBF for 20 minutes. The trachea was then ligated below the cannula and the cannula removed. The heart, lung & trachea were immersed in PBF.
The data were therefore initially subjected to a one-way analysis of variance test (ANOVA), followed by a Bonferroni correction for multiple comparisons in order to test for statistically significant differences between treatment groups. A “p” value of <0.05 was considered to be statistically significant. […]

Assay [2] has as its system mouse CIA model (DBA1/J mice). Nature of the assay: Mouse collagen induced arthritis (CIA) model, therapeutic protocol. The class given is in vivo. The following applies: 10 mg/kg, 3x week, i.p., day 31 to day 46. As for the experimental part: DBA1/J mice (male, 6-7 weeks old, approx 20 gram) were obtained from Centre d'Elevage Regional Janvier (Laval, France). Mice were kept on a 12 hr light/dark cycle (0700-1900). Temperature was maintained at 22° C., and food and water were provided ad libitum.
One day before the experiment, CII solution (2 mg/mL) was prepared with 0.05 M acetic acid and stored at 4° C. Just before the immunization, equal volumes of adjuvant […] and CII were mixed by a homogenizer in a pre-cooled glass bottle in an ice water bath. Extra adjuvant and prolonged homogenization may be required if an emulsion is not formed. 0.1 mL of the emulsion was injected intradermally at the base of the tail of each mouse on day 1, a second booster intradermal injection (CII solution at 2 mg/mL in […] 0.1 mLemulsion) was performed on day 21. This immunization method was modified from published methods (Brand et al, 2007, Collagen-induced arthritis. Nature Protocols; vol 2 (5): 1269-1275; Lin et al., 2007, Anti-rheumatic activities of histone deacetylase (HDAC) inhibitors in vivo in collagen-induced arthritis in rodents. Br J Pharmacol. April; 150 (7):829-31).
The therapeutic effects of the antibodies were tested in the mouse CIA model. Mice were randomly divided into equal groups and each group contained 10 mice. All mice were immunized on day 1 and boosted on day 21. Therapeutic dosing lasted from day 31 to day 46. The negative control group was treated with vehicle (PBS) and the positive control group with Enbrel (10 mg/kg, 3× week, i.p.). An antibody of interest was tested at 10 mg/kg, i.p. 3 times per week.
Anti-IL17C antibodies were administered i.p. three times a week at 10 mg/kg. […]
Arthritis was scored according to the method of Khachigian 2006 (Collagen antibody-induced arthritis. (2006) Nature Protocols 1, 2512-6), Lin et al 2007 (supra); Nishida et al. 2004 (Histone deacetylase inhibitor suppression of autoantibody-mediated arthritis in mice via regulation of p16INK4a and p21(WAF1/Cip1) expression. Arthritis Rheum. 10: 3365-76); and Brand et al. 2007 (supra). […]

The target of another assay is T1, mouse IL17C (Mus musculus, UniProt Q8K4C5).
T1 construct: purchased R&D Systems 2306-ML/CF
T1 sequence (Q8K4C5 17-194): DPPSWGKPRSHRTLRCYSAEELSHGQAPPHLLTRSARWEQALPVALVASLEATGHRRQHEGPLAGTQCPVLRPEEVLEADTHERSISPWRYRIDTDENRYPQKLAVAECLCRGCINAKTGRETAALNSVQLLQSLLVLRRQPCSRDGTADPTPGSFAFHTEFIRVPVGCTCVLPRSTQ
Nature of the assay: ELISA titration on mouse IL17C (EC50 determination). Format: binding. As for the experimental part:
All purified chimeric human-mouse chimeric IgG2a antibodies were titrated on mouse IL17C for EC50 determination in ELISA starting with a concentration of 100 nM. EC50 values on mouse IL17C were determined in 1 to 3 independent experiments.

For `O=C(Nc1c(Cl)cncc1Cl)c1ccc(OC(F)F)c(OCC2CC2)c1` [Roflumilast, reference compound], in assay [1] (5 mg/kg p.o. q.d.), the “Inhibition of epithelial cells in BAL” value was found to be 50%, the “Inhibition of lymphocytes in BAL” value is given as 54%, the “Inhibition of macrophages in BAL” value turned out to be 13% and the “Inhibition of neutrophils in BAL” value was determined as 56%. In addition, the “Inhibition of total cells in BAL” value in assay [1] (5 mg/kg p.o. q.d., 1 h prior to each TS-exposure) is 32%. For the same molecule, the “inhibition of total cell numbers recovered in the BAL (in words)” value in assay [1] (5 mg/kg p.o., 1 h prior to each TS-exposure) is on record as “significantly inhibited”.

As to etanercept [Enbrel, reference compound], the “inhibition of inflammation / disease progression (clinical score)” value in assay [2] is listed as “did inhibit”.

B1: MOR12756: anti-mouse IL17C HuCAL antibody; CDRs SEQ ID NO: 111-116, VL 117, VH 118 (antibody, V domains shown)
VH: QVQLQQSGPGLVKPSQTLSLTCAISGDSVSDNSVAWNWIRQSPSRGLEWLGRIYYRSKWYNDYAVSVKSRITINPDTSKNQFSLQLNSVTPEDTAVYYCAREVLLFPARSYGTGMDVWGQGTLVTVSS
VL: DIELTQPPSVSVSPGQTASITCSGDNLPSKYVHWYQQKPGQAPVLVIYDDNERPSGIPERFSGSNSGNTATLTISGTQAEDEADYYCGVADMPRQMKVFGGGTKLTVLGQ
modifications: VH; VL
As to B1, the “binding activity with purified IgG2a” value in the assay with mouse IL17C is on record as “could not be confirmed”.

B2: MOR12755: anti-mouse IL17C HuCAL antibody; CDRs SEQ ID NO: 101-106, VL 107, VH 108 (antibody, V domains shown)
VH: QVQLQQSGPGLVKPSQTLSLTCAISGDSVSSNSAAWNWIRQSPSRGLEWLGKTYYRSTWSNDYAESVKSRITINPDTSKNQFSLQLNSVTPEDTAVYYCAREMDSLTRSASSIAFDYWGQGTLVTVSS
VL: DIELTQPPSVSVSPGQTASITCSGDNLREHYVHWYQQKPGQAPVLVIYDDTERPSGIPERFSGSNSGNTATLTISGTQAEDEADYYCATRDWSNVVFGGGTKLTVLGQ
modifications: VH; VL
Take B2: in the assay with mouse IL17C, the “binding activity with purified IgG2a” value is recorded as “could not be confirmed”.

B3: MOR12757: anti-mouse IL17C HuCAL antibody; CDRs SEQ ID NO: 121-126, VL 127, VH 128 (antibody, V domains shown)
VH: EVQLLESGGGLVQPGGSLRLSCAASGFTFSSYAMSWVRQAPGKGLEWVSFISSGGSETFYADSVKGRFTISRDNSKNTLYLQMNSLRAEDTAVYYCARVSYIYYYSWVLFDVWGQGTLVTVSS
VL: DIQMTQSPSSLSASVGDRVTITCRASQGIGTALNWYQQKPGKAPKLLIYDVSSLQSGVPSRFSGSGSGTDFTLTISSLQPEDFATYYCQQGLFLPFTFGQGTKVEIKRT
modifications: VH; VL
Consider B3, for which the “binding activity with purified IgG2a” value in the assay with mouse IL17C was “could not be confirmed”.

B4: MOR12758: anti-mouse IL17C HuCAL antibody; CDRs SEQ ID NO: 131-136, VL 137, VH 138 (antibody, V domains shown)
VH: EVQLVQSGAEVKKPGESLKISCKGSGYSFTDYWISWVRQMPGKGLEWMGAIDPTDSYTRYSPSFQGQVTISADKSISTAYLQWSSLKASDTAMYYCARWYTSHPYYEGRYPMDVWGQGTLVTVSS
VL: DIALTQPASVSGSPGQSITISCTGTSSDVGHYNYVSWYQQHPGKAPKLMIYGVTKRPSGVSNRFSGSKSGNTASLTISGLQAEDEADYYCASADEWPTLHVFGGGTKLTVLGQ
modifications: VH; VL
Turning to B4, in the assay with mouse IL17C, the “binding activity with purified IgG2a” value is “could not be confirmed”.
